The values that follow come from PMC11671014 (PLOS Pathogens, 2024).

Assay [1] has as its target T1, NAE (NEDD8-activating enzyme) (Homo sapiens, UniProt Q8TBC4).
T1 sequence (Q8TBC4 1-463): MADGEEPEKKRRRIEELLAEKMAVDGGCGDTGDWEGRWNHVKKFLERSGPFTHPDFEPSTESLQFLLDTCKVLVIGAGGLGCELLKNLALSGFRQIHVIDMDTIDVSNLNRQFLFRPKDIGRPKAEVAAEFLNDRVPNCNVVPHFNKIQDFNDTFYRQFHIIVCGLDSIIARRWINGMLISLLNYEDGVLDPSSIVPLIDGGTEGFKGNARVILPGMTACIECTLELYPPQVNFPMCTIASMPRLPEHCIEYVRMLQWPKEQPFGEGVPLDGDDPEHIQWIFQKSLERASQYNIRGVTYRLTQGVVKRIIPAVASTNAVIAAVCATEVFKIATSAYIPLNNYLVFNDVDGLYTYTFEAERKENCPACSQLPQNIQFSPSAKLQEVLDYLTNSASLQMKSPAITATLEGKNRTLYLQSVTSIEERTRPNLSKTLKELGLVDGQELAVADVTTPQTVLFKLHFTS
T1 sequence (Q13564 1-534 partner): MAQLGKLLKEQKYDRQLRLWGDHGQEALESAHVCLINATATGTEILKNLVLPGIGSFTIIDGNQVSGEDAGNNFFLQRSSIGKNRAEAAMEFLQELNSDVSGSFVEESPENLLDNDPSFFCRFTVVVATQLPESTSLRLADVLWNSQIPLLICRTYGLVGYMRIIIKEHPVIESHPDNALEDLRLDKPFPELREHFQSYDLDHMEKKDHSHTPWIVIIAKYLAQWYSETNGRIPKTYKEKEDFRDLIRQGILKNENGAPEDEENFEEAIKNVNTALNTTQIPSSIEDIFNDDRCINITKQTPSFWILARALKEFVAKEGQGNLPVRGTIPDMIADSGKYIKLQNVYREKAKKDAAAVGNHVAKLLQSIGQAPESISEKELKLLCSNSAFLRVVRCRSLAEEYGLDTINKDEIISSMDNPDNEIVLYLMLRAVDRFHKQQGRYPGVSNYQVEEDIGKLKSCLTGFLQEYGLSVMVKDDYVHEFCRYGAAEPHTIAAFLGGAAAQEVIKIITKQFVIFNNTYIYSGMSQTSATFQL
The assay is described as follows: NAE E1-E2 transthiolation HTRF assay. The assay is classed as biochemical. An excerpt: (§1) An Homogeneous Time-Resolved Fluorescence (HTRF) enzyme assay was employed to evaluate compound activity against ATG7 as previously described. In this assay, a Flag-tagged ATG8 homolog (GABA type A receptor-associated protein; GABARAP) is activated by ATG7 and then transthiolated to a GST-tagged E2 (ATG3). The product of the enzyme reaction, Flag-GABARAP-ATG3-GST, is quantified by measuring FRET between Europium-Cryptate labelled monoclonal anti-Flag M2 (FLAG M2-Eu cryptate; Revvity, Cat# 61FG2KLB) and […] (Anti-GST IgG conjugated to SureLight-Allophycocyanin) (Revvity, Cat# AD0059G)). The activation and transthiolation of ubiquitin by UAE, activation and transthiolation of NEDD8 by NAE and activation and transthiolation of SUMO by SAE were all assayed in a similar fashion with appropriately tagged ubiquitin-like proteins and E2 conjugating enzymes as described.

Assay [2] concerns the target PfTyrRS (Plasmodium falciparum, UniProt Q8IAR7). The assay is described as follows: Differential scanning fluorimetry (DSF) of PfTyrRS. Conditions: for ΔTm at 50 µM: 50 μM sulfamate, tyrosine, PftRNA^Tyr, 37°C 2 h, read-out: PfTyrRS binding (DSF) Delta Tm; for ΔTm at 50 µM / PfTyrRS Tm: ATP; for Kd: estimated from DSF with an irreversible thermal unfolding model, read-out: PfTyrRS binding (DSF) apparent KD; for PfTyrRS Tm: with sulfamate, tyrosine and tRNA, apo 49.9 ± 0.6. The class given is binding. The method, then:
The effect on ML471 and analogues on the thermal stability of TyrRS enzymes was assayed as previously described. […] SYPRO Orange (Sigma-Aldrich; 5,000X concentrate in DMSO) was added to the reaction mixture at a final concentration of 5X. 25 μL of the sample was added into each well of a 96-well qPCR plate (Applied Biosystems). The plate was sealed and analysed using StepOnePlus Real-Time PCR system (Applied Biosystems). The samples were heated from 20°C to 90°C with a 1% continuous gradient. The thermal unfolding curve was plotted as the first derivative curve of the raw fluorescence values. The melting temperature (Tm), defined as the peak of the first derivative curve, was used to assess the thermal stability of protein-ligand complexes.

For assay [3], the target named is T2, SAE (SUMO-activating enzyme) (Homo sapiens, UniProt Q9UBT2).
T2 sequence (Q9UBT2 1-640): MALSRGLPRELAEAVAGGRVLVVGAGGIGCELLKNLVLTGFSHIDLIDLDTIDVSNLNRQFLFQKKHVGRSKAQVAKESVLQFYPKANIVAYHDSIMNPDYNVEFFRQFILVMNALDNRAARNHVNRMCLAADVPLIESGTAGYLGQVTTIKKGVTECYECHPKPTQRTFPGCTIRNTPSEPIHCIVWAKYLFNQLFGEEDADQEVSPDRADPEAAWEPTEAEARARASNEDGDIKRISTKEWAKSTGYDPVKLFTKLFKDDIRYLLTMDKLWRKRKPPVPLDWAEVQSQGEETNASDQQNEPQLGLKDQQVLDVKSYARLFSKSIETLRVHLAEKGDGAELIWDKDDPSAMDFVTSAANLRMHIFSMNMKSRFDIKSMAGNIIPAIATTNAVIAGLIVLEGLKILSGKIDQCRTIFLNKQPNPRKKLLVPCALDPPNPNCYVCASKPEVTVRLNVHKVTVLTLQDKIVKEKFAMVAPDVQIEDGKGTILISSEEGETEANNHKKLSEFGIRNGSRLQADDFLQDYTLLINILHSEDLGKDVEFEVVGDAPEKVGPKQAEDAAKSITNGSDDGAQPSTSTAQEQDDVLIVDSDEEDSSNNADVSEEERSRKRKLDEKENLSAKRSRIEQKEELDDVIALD
T2 sequence (Q9UBE0 1-346 partner): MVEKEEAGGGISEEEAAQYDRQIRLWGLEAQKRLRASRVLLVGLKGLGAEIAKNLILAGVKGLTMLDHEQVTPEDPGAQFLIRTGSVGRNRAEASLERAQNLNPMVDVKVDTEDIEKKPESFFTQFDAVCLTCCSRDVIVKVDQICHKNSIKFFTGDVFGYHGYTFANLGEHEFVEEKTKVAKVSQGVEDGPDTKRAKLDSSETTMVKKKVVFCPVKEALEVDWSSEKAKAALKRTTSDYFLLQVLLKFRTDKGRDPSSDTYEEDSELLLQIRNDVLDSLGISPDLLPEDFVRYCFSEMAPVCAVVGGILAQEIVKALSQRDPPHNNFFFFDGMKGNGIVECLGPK
The assay is described as follows: SAE E1-E2 transthiolation HTRF assay. The assay is classed as biochemical.
Description: as §1
(TR-FRET usually uses a lanthanide donor and a delayed reading to cut background.)

The structures appear in SMILES notation.

PfTyrRS, sequence (Q8IAR7 entry or part of it): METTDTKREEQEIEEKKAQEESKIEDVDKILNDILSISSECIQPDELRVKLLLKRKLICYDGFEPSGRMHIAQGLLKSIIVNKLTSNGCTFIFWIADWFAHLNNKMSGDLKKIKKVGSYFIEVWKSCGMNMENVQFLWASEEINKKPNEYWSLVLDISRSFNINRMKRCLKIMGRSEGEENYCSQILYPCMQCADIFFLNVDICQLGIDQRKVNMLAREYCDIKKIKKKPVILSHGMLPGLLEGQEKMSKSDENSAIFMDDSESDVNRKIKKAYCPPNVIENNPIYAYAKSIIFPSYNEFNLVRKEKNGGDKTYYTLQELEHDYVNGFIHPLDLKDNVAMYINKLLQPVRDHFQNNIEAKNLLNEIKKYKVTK

As for `Nc1ncnc2c1c(C(F)(F)F)nn2[C@@H]1O[C@H](COS(N)(=O)=O)[C@@H](O)[C@H]1O` [ML107], in assay [1], the midpoint of inhibition, the IC50, lay at 75.3 ± 0.8 µM. In addition, in assay [2], the ΔTm at 50 µM is 13.6 ± 0.6 °C, the Kd was 0.0014 µM and the “PfTyrRS Tm” value is 63.5 ± 0.4 °C. In assay [3], this molecule displayed an IC50 of 78.5 ± 6.2 µM.

Turning to `Nc1ncnc2c1c(OC(F)F)nn2[C@@H]1O[C@H](COS(N)(=O)=O)[C@@H](O)[C@H]1O` [ML901], in assay [1], the IC50 came to 28 ± 0.6 µM. Also, in assay [2], the ΔTm at 50 µM is 15.2 ± 0.1 °C, the Kd is 0.0007 µM and the “PfTyrRS Tm” value came to 65.1 ± 0.5 °C. In assay [3], the IC50 was above 100 µM and the “activity against SAE (in words)” value is recorded as “no activity”.

Take `CC(C)c1nn([C@@H]2O[C@H](COS(N)(=O)=O)[C@@H](O)[C@H]2O)c2ncnc(N)c12` [ML471, ((2R,3S,4R,5R)-5-(4-amino-3-isopropyl-1H-pyrazolo[3,4-d]pyrimidin-1-yl)-3,4-dihydroxytetrahydrofuran-2-yl)methyl sulfamate]: in assay [1], the IC50 was above 100 µM and the “activity against NAE (in words)” value is “no or very little activity”. Moreover, in assay [2], the ΔTm at 50 µM was found to be 18 ± 0.1 °C, the Kd was 0.0002 µM and the “PfTyrRS Tm” value was determined as 67.9 ± 0.4 °C. In assay [3], the IC50 is above 100 µM and the “activity against SAE (in words)” value was “no or very little activity”.

Consider `CCc1nn([C@@H]2O[C@H](COS(N)(=O)=O)[C@@H](O)[C@H]2O)c2ncnc(N)c12` [ML681], for which, in assay [1], the IC50 is 35.3 ± 0.8 µM. Moreover, in assay [2], the ΔTm at 50 µM was 16.4 ± 0.1 °C, the Kd is 0.0004 µM and the “PfTyrRS Tm” value worked out at 66.3 ± 0.5 °C. This molecule gave an IC50 in assay [3] of 22.4 ± 3.1 µM.

As to `CCOc1nn([C@@H]2O[C@H](COS(N)(=O)=O)[C@@H](O)[C@H]2O)c2ncnc(N)c12` [ML676], in assay [1], 66.6 ± 1.1 µM corresponded to half-maximal inhibition (IC50). In assay [2], the ΔTm at 50 µM is 15.69 ± 0.01 °C, the Kd was 0.0006 µM and the “PfTyrRS Tm” value was 65.5 ± 0.6 °C. In assay [3], this molecule displayed an IC50 of 31.4 ± 5.7 µM.

With `CC(C)Oc1nn([C@@H]2O[C@H](COS(N)(=O)=O)[C@@H](O)[C@H]2O)c2ncnc(N)c12` [ML723], the IC50 in assay [1] was above 100 µM. In addition, in assay [2], the ΔTm at 50 µM was 16.2 ± 0.1 °C, the Kd is 0.0005 µM and the “PfTyrRS Tm” value was 66.1 ± 0.7 °C. Moreover, in assay [3], the IC50 is above 100 µM.

The molecule `Nc1ncnc2c1c(Oc1ccccc1)nn2[C@@H]1O[C@H](COS(N)(=O)=O)[C@@H](O)[C@H]1O` [ML470] displayed an IC50 in assay [1] above 100 µM. In assay [2], the ΔTm at 50 µM stood at 15.7 ± 0.3 °C, the Kd was 0.0006 µM and the “PfTyrRS Tm” value was determined as 65.5 ± 0.6 °C. Besides, the IC50 in assay [3] was above 100 µM.

As usually defined, the IC50 is the point on the concentration scale where inhibition reaches its midpoint.
